Measured values published in ChEMBL document CHEMBL5653631, “A Potent and Selective ULK1 Inhibitor Suppresses Autophagy and Sensitizes Cancer Cells to Nutrient Stress” (iScience, 2018).

Assays:
[1] = target: T1, Eukaryotic translation initiation factor 2-alpha kinase 3 (Homo sapiens) (UniProt Q9NZJ5); assay: Inhibition of human recombinant PEK at 40 nM in presence of ATP by radiometric assay relative to control
T1 sequence (whole entry): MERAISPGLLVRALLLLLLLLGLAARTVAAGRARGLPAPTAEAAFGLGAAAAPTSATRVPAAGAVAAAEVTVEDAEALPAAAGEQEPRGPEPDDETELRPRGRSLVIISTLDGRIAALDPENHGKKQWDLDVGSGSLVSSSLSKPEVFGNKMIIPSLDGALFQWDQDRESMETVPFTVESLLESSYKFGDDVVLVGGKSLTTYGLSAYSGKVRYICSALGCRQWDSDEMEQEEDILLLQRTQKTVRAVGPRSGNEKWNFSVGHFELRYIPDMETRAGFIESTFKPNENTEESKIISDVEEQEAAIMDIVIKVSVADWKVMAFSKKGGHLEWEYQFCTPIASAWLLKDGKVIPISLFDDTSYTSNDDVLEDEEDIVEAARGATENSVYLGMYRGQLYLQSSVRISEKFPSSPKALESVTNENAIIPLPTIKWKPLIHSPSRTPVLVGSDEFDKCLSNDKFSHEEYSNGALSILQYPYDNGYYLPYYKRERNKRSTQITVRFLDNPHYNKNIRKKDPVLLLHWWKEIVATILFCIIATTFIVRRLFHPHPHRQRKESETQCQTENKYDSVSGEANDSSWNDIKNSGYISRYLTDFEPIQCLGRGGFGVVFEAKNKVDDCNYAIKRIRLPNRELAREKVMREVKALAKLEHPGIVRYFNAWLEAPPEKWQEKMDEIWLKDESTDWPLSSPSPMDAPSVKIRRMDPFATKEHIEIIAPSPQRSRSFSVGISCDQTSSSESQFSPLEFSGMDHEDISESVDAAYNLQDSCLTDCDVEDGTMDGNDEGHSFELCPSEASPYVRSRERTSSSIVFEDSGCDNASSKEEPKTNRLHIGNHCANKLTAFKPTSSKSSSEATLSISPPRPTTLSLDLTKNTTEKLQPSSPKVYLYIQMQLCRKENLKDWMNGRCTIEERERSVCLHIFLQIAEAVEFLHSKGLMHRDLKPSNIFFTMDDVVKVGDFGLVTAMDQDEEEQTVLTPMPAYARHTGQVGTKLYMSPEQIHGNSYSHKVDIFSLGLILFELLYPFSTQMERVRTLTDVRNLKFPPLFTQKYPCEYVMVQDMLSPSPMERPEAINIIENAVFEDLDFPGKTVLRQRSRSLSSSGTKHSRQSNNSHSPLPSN

[2] = target: Focal adhesion kinase 1 (Homo sapiens) (UniProt Q05397); assay: Inhibition of human recombinant FAK at 40 nM related to control ULK1
[3] = target: Angiopoietin-1 receptor (Homo sapiens) (UniProt Q02763); assay: Inhibition of human recombinant Tie2 at 40 nM in presence of ATP by radiometric assay relative to control
[4] = target: LIM domain kinase 1 (Homo sapiens) (UniProt P53667); assay: Inhibition of human recombinant LIMK1 at 15 nM in presence of ATP by radiometric assay relative to control
[5] = target: T2, Mitogen-activated protein kinase kinase kinase 3 (Homo sapiens) (UniProt Q99759); assay: Inhibition of human recombinant MAP3K3 at 500 nM related to control ULK1
T2 sequence (whole entry): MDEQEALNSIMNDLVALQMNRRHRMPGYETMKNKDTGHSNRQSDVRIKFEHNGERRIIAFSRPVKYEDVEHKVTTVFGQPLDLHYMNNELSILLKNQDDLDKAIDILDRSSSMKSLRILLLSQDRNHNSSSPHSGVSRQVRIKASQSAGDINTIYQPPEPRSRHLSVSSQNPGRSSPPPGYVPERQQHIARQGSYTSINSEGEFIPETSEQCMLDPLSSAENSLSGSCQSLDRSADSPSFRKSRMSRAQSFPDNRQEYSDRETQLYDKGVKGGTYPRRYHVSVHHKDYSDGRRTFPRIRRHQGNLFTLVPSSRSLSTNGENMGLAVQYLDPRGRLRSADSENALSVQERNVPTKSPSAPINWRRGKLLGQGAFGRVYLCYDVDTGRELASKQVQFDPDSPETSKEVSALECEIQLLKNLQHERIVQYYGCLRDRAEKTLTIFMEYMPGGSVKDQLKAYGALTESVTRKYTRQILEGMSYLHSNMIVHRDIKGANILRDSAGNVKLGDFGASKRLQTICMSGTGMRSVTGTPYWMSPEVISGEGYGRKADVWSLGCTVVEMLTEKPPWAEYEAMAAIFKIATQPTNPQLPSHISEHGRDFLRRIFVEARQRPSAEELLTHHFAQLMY

[6] = target: T3, Serine/threonine-protein kinase TAO3 (Homo sapiens) (UniProt Q9H2K8); assay: Inhibition of human recombinant TAO3 at 500 nM related to control ULK1
T3 sequence (whole entry): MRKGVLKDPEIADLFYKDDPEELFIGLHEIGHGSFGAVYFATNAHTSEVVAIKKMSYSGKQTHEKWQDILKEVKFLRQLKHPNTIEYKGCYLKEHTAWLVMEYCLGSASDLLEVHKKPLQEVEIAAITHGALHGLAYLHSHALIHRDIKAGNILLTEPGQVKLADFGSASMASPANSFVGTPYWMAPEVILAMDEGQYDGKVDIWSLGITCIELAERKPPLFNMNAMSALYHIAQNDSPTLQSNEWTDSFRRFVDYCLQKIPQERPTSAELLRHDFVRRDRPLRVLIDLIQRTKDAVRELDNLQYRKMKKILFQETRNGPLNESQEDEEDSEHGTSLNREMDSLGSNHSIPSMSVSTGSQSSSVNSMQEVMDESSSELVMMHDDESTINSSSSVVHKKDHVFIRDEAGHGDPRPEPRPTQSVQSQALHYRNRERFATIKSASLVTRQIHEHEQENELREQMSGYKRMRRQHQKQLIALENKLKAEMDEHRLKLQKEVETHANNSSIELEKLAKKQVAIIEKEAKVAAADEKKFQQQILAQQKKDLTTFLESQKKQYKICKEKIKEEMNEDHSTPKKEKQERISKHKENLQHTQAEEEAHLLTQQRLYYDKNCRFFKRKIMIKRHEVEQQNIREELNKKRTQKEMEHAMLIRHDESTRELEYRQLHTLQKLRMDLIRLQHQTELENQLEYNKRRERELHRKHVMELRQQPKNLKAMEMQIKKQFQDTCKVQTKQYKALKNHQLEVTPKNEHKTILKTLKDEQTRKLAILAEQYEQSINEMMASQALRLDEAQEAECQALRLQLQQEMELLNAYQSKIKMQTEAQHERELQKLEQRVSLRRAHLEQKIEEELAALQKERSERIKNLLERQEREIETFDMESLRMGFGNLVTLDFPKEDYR

Sequence of Angiopoietin-1 receptor (Homo sapiens) (Q02763 whole entry, the tested form may be a part): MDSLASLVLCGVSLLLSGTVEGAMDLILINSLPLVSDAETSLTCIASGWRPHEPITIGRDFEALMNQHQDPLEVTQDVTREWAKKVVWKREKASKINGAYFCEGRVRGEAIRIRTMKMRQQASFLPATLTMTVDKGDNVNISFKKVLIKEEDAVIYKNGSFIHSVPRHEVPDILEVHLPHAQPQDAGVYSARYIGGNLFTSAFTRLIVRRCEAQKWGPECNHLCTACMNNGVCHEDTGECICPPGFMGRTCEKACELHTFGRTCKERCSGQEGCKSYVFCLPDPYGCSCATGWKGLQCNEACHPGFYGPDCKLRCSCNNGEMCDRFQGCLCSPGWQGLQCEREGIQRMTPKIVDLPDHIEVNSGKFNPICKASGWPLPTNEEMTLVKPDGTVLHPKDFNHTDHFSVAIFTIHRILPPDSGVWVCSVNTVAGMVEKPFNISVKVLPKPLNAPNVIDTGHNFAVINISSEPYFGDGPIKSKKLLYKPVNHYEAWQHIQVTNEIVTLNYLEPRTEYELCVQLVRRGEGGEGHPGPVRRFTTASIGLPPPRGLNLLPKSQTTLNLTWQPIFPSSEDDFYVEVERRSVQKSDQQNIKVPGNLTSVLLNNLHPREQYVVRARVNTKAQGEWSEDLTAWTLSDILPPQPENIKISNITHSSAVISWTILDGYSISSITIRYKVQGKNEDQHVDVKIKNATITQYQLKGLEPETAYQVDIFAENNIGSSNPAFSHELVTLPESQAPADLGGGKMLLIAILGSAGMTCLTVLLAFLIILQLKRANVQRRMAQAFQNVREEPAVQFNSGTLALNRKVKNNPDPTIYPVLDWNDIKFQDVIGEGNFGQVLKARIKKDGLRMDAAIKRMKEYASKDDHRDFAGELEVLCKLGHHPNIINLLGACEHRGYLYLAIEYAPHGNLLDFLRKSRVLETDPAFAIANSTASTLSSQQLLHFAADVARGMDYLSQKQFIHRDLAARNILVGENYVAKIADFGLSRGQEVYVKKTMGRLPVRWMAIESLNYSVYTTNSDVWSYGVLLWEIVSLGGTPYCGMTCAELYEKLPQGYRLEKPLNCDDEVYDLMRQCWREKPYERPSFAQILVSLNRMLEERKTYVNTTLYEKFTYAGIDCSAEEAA
Sequence of LIM domain kinase 1 (Homo sapiens) (P53667 whole entry, looked up, the tested form may be a part): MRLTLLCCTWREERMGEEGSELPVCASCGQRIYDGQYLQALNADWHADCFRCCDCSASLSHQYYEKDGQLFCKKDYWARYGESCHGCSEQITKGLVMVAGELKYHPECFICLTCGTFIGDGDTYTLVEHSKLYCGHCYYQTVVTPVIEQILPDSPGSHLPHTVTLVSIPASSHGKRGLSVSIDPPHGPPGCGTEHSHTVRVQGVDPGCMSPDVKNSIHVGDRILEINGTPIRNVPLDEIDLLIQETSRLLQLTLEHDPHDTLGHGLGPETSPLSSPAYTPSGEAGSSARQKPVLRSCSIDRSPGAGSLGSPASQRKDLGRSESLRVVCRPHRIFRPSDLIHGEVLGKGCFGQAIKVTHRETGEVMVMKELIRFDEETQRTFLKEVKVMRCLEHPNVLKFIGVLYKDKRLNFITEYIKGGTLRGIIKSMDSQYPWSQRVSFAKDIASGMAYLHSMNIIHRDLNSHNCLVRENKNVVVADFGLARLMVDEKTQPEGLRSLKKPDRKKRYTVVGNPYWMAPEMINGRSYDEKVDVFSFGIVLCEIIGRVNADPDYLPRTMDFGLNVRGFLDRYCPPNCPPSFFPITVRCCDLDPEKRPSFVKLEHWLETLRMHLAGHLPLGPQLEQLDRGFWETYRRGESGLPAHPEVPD
Sequence of Focal adhesion kinase 1 (Homo sapiens) (Q05397 2-1052 limits assumed): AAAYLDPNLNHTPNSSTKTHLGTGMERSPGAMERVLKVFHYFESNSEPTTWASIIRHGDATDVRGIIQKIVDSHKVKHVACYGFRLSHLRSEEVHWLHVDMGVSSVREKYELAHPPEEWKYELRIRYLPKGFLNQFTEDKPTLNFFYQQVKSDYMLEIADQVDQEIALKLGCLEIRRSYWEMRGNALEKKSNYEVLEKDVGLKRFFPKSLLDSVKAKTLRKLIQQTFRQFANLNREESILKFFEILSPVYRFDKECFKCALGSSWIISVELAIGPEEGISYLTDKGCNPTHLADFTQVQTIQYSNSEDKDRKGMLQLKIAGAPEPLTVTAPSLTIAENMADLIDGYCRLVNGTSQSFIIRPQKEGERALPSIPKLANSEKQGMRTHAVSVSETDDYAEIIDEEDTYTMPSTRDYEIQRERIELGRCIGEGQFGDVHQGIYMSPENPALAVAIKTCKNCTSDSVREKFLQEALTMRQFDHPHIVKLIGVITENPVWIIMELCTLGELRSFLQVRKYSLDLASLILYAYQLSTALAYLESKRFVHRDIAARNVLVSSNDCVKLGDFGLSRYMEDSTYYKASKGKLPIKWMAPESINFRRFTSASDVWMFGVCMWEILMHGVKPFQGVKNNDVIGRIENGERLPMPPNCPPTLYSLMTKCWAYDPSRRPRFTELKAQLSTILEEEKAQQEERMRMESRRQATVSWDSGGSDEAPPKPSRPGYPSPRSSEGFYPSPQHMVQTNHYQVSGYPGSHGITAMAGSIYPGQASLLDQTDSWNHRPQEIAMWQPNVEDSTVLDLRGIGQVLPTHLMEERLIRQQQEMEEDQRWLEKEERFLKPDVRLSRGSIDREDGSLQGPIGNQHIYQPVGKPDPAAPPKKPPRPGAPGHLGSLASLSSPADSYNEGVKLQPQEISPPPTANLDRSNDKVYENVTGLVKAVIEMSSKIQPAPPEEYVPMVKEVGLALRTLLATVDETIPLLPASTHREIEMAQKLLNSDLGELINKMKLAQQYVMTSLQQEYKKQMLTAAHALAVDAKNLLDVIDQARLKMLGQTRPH

Question: Which results are given for `O=C(N[C@@H](C1CC1)C(F)(F)F)c1cc(-c2cnn3cc(-c4ccc(F)cc4)cnc23)cs1`?
Answer: inhibition [1]: 0%; fold change (FC) [2]: 0; inhibition [3]: 0%

Question: For `CC(C)[C@H](NC(=O)c1cc(-c2cnn3cc(-c4ccc(OCCN5CCCCC5)cc4)cnc23)cs1)C(F)(F)F`, which inhibition [4] is on record?
Answer: Its inhibition is 56%.

Question: Which results are given for `CNC(=O)c1ccccc1Oc1nc(Nc2cc(OC)c(OC)c(OC)c2)ncc1Br`?
Answer: fold change (FC) [5]: 0; fold change (FC) [6]: 0
